Patent publication US12102642B2, “Treatment of hypercoagulopathy in Cushing's syndrome by administration of glucocorticoid receptor modulators” (Corcept Therapeutics Incorporated, priority 2018, dated 2024)
“Also recorded” adds a separate entry of the source.

Columns and labels:
[1] = tested on: Cushing's syndrome patients; experiment: Clinical study of relacorilant in Cushing's syndrome patients (coagulation factors, inflammation markers, comorbidities); type: in vivo, human
Description: In TABLE 1 above, the P-value is a Wilcoxon Signed Rank P-value; mean change from baseline indicates the mean change from the initial (baseline) values to the last-observed values; Factor VIII values are reported as percent of normal values; platelet counts and eosinophil counts are reported as numbers of cells per liter; APTT indicates activated partial thromboplastin time, measured in seconds; and serum osteocalcin measures levels of the vitamin K-related hormone osteocalcin outside of bone. […] Relacorilant was administered to the patients once per day for four months. Two groups of Cushing's syndrome patients received relacorilant. Group 1 received 100 milligrams per day (mg/day) which, if tolerated, was raised to 200 mg/day for the 16 weeks of the study. Group 2 received relacorilant doses according to the following schedule: the starting doses were 250 milligrams (mg) per day of relacorilant for four weeks, followed by 300 mg/day relacorilant for the next four weeks, followed by 350 mg/day relacorilant for a further four weeks, and then 400 mg relacorilant for another four weeks. […] Factor VIII and von Willebrand Factor at baseline, prior to relacorilant administration (left-most pair of columns); after four weeks of relacorilant treatment (middle pair of columns); and after 3 or 4 months of relacorilant treatment (right-most pair of columns). Factor VIII levels are reduced, as compared to baseline, at week four and after 3 or 4 months of relacorilant treatment. […] The APTT of Group 2 patients receiving relacorilant was measured at baseline (before relacorilant administration) and after 16 weeks (or following the last relacorilant administration for those patients who […] the full 16 weeks of relacorilant administration). […] Increased APTT indicates an increase in the time for blood coagulation; that is, a reduction in hypercoagulation.

[2] = tested on: Cushing's syndrome patients; conditions: see U.S. Patent Application 62/783,015; cited from earlier work
[3] = baseline to last-observed values, cells per liter
[4] = generally observed within two weeks of achieving a therapeutic dose

Structure (SMILES): Cn1cc(S(=O)(=O)N2CCC3=Cc4c(cnn4-c4ccc(F)cc4)C[C@]3(C(=O)c3cc(C(F)(F)F)ccn3)C2)cn1 [relacorilant, (R)-(1-(4-fluorophenyl)-6-((1-methyl-1H-pyrazol-4-yl)sulfonyl)-4,4a,5,6,7,8-hexahydro-1H-pyrazolo[3,4-g]isoquinolin-4a-yl)(4-(trifluoromethyl)pyridin-2-yl)methanone]
- Coagulation profile (coagulation factors, thrombin-antithrombin) compared to baseline ([1]; FIG. 2B): improved compared to baseline
- APTT compared to baseline ([1]; Group 2 patients (250 to 400 mg/day), 12 patients, after 16 weeks or last administration (FIG. 2A), p-value 0.014): increased significantly
- Von Willebrand factor levels compared to baseline ([1]; after 3 or 4 months of relacorilant treatment (FIG. 1A)): return to baseline levels
- C-Reactive protein levels compared to baseline ([1]; after 3 or 4 months of relacorilant treatment (FIG. 3)): return to baseline levels
- Factor VIII levels compared to baseline ([1]; after 3 or 4 months of relacorilant treatment, end of study (FIG. 1A)): reduced; also recorded: normalized
- Abnormally elevated coagulation factors caused by excess cortisol activity ([1]; as early as after one month of treatment): Improvement/normalization
- Von Willebrand factor levels compared to baseline ([1]; at four weeks of relacorilant treatment (FIG. 1A)): initially rise somewhat
- C-Reactive protein levels compared to baseline ([1]; at four weeks of relacorilant treatment (FIG. 3)): initially rise somewhat
- Serum Osteocalcin, Mean Change from Baseline ([1]; baseline to last-observed values): 3.00 µg/L
- Coagulopathy (APTT), Mean Change from Baseline ([1]; baseline to last-observed values, activated partial thromboplastin time): +1.45 Seconds
- Coagulopathy (Platelets), Mean Change from Baseline [1, 3]: −68.82 10^9/L
- Inflammation (eosinophils), Mean Change from Baseline [1, 3]: 0.05 10^9/L
- Coagulopathy (Factor VIII), Mean Change from Baseline ([1]; baseline to last-observed values, percent of normal values, Cushing's syndrome patients, relacorilant once per day): −18.94%
- Thromboembolic events ([1]; clinical study of 35 Cushing's syndrome patients treated with relacorilant): No thromboembolic events were observed
- Hyperglycemia [1, 4]: improvement
- Hypertension [1, 4]: improvement
- Factor VIII levels compared to baseline ([1]; week four of relacorilant treatment (FIG. 1A)): reduced
- Effect on cortisol [2]: not raising cortisol
- Risk of hypokalemia [2]: not increasing the risk of hypokalemia
